Measurements from patent US20040044006A1, “Methods of use of quinolone compounds against pneumococcal and haemophilus bacteria” (priority 1999, published 2004).
Values after ≈ are worked out from the molar mass of the structure shown. Like-named read-outs stand apart in the source and are kept apart here.

Key:
[1] = test system: quinolone susceptible pneumococci (ciprofloxacin MICs ≦4.0 μg/ml); experiment: Agar dilution MICs of 207 quinolone susceptible pneumococcal strains; format: cell-based, Streptococcus pneumoniae; conditions: agar dilution; for MIC: read-out: MIC range
Description: All susceptible, and some intermediate and resistant strains, were recent U.S. isolates. The remainder of intermediate and resistant strains were isolated in South Africa, Spain, France, Central and Eastern Europe, and Korea. […] Additionally these strains were tested for mutations in parC, gyrA, parE, and gyrB (Pan, et al., Antimicrob. Agents Chemother. 40:2321-2326, 1996) and for efflux mechanism (Brenwald, et al., Antimicrob. Agents Chemother. 42:2032-2035, 1998). For time-kill studies, 4 penicillin susceptible, 4 intermediate and 4 resistant strains (2 quinolone resistant) were tested, while for PAE studies 5 quinolone susceptible and 1 resistant strains were studied.
(§1) Agar dilution methodology was performed on 234 strains as described previously (M. R. Jacobs, Clin. Infect. Dis. 15:119-127, 1992; Jacobs, et al., Rev. Med. Microbiol. 6:77-93, 1995), using Mueller-Hinton agar (BBL Microbiology Systems, Cockeysville, Md.) supplemented with 5% sheep blood. Broth MICs for 12 strains tested by time-kill and 6 tested by PAE were performed according to NCCLS recommendations (Methods for Dilution Antimicrobial Susceptibility Tests for Bacteria that Grow Aerobically, 3rd Edition, NCCLS, Villanova, Pa.) using cation-adjusted Mueller-Hinton broth with 5% lysed defibrinated horse blood. Standard quality control strains, including Streptococcus pneumoniae ATCC 49619, were included in each run of agar and broth dilution MICs.

[2] = test system: pneumococci (5 quinolone susceptible and 1 resistant strains); experiment: Post-antibiotic effect (PAE) testing; format: cell-based, Streptococcus pneumoniae; conditions: for PAE for non-quinolone compounds: range over strains
Description: The post-antibiotic effect (PAE) (Craig, et al., V. Lorian (ed.) Antibiotics in Laboratory Medicine, Williams and Wilkins, Baltimore, pages 296-399, 1996) was determined by the viable plate count method, using Mueller-Hinton broth (MHB) supplemented with 5% lysed horse blood when testing pneumococci. […] Additionally, the one quinolone resistant strain was exposed at quinolone concentrations 5×MIC. Tubes containing 5 ml broth with antibiotic were inoculated with approximately 5×10^6 cfu/ml. Growth controls with inoculum but no antibiotic were included with each experiment. Tubes were placed in a shaking water bath at 35° C. for 1 h. At the end of the exposure period, cultures were diluted 1:1000 to remove antibiotic.
Viability counts were determined before exposure and immediately after dilution (0 h), and then every 2 h until tube turbidity reached a #1 McFarland standard. Inocula were prepared by suspending growth from an overnight blood agar plate in broth. The broth was incubated at 35° C. for 2-4 h in a shaking water bath until turbidity matched a #1 McFarland standard, and checked for viability by plate counts (Spangler, et al., Antimicrob. Agents Chemother. 41:2173-9176, 1997; Spangler, et al., Antimicrob. Agents Chemother. 42:1253-1255, 1998).
The PAE was defined as PAE=T-C; T=time required for viability counts of an antibiotic-exposed culture to increase by 1 log10 above counts immediately after dilution; C=corresponding time for growth control. For each experiment, viability counts (log10 cfu/ml) were plotted against time, and results expressed as the mean of two separate assays±S D (Craig, et al., V. Lorian (ed), Antibiotics in Laboratory Medicine, Williams and Wilkins, Baltimore, pages 296-329, 1996).

[3] = test system: pneumococcal strains; experiment: Microbroth dilution MICs of strains tested by time-kill and PAE; format: cell-based; conditions: Streptococcus pneumoniae, read-out: Microdilution MIC
Description: as §1

[4] = test system: quinolone-resistant Haemophilus influenzae strains; experiment: Microdilution MIC determination in HTM for quinolone-resistant Haemophilus influenzae strains; format: cell-based; conditions: 9 quinolone-resistant Haemophilus influenzae strains
Description: Inocula were prepared from chocolate agar plates incubated for a full 24 hours by the direct colony suspension method as follows: In a tube of Mueller-Hinton broth (Difco), an organism suspension was made to a density of a 0.5 McFarland standard (1×10^8 CFU/ml). The latter inoculum was diluted in sterile saline such that final organisms suspensions in trays yielded colony counts of 3-8×10^5 CFU/ml. Frozen microdilution trays were obtained from MicroMedia Systems, Inc. (Cleveland, Ohio, USA). Each tray contained all antimicrobials prepared in freshly made HTM. Wells were inoculated with 100 μl suspensions and incubated in ambient air at 35° C. for 20-24 hours. The lowest drug concentration showing no growth was read as the MIC. Standard quality control strains, including H. influenzae ATCC 49766, H. influenzae ATCC 49247, Staphylococcus aureus ATCC 29213 and Escherichia coli ATCC 25922 were included with each run.

[5] = test system: quinolone resistant pneumococci; experiment: Determination of efflux mechanism: MICs in the presence and absence of reserpine; format: cell-based, Streptococcus pneumoniae; conditions: for number of strains with lower MICs in the presence of reserpine: of 28 quinolone resistant strains, 10 μg/ml reserpine
Description: MICs were determined in the presence and absence of 10 μg/ml of reserpine (Sigma Chemicals, St. Louis, Mo.) as known in the art.
MICs were determined in the presence and absence of […] of reserpine (Sigma Chemicals, St. Louis, Mo., USA) as described previously (Brenwald, et al., Antimicrob. Agents Chemother. 42:2039-2035, 1998 and Davies, et al., Antimicrob. Agents Chemother. 43:1177-1182S, 1999).

[6] = Streptococcus pneumoniae, Penicillin I strains, read-out: MIC90
[7] = Streptococcus pneumoniae, Penicillin R strains
[8] = Streptococcus pneumoniae, Penicillin R strains, read-out: MIC90
[9] = Streptococcus pneumoniae, Penicillin S strains, read-out: MIC90
[10] = strain 1 (S) penicillin susceptible
[11] = strain 2 (S) penicillin susceptible
[12] = strain 3 (S) penicillin susceptible, quinolone-resistant
[13] = strain 5 (I) penicillin intermediate
[14] = strain 6 (I) penicillin intermediate
[15] = strain 9 (R) penicillin resistant
[16] = strain 12 (R) penicillin resistant
[17] = 5×MIC, quinolone resistant strain
[18] = 10×MIC for 1 h, range over 5 quinolone susceptible strains
[19] = Streptococcus pneumoniae, Penicillin I strains
[20] = Streptococcus pneumoniae, Penicillin S strains
[21] = strain 4 (S) penicillin susceptible, quinolone-resistant
[22] = strain 7 (I) penicillin intermediate
[23] = strain 8 (I) penicillin intermediate
[24] = strain 11 (R) penicillin resistant

Row | MIC90 [1, 6] [µg/mL] | MIC50 [1, 7] [µg/mL] | MIC90 [1, 8] [µg/mL] | MIC90 [1, 9] [µg/mL] | MIC90 ([1]; Penicillin R strains) [µg/mL] | Compound | PAE for non-quinolone compounds ([2]; 10×MIC) [h] | MIC [3, 10] [µg/mL] | MIC [3, 11] [µg/mL] | MIC [3, 12] [µg/mL] | MIC [3, 13] [µg/mL] | MIC [3, 14] [µg/mL] | MIC [3, 15] [µg/mL] | MIC ([3]; strain 10 (I)) [µg/mL] | MIC [3, 16] [µg/mL] | MIC50 [4] [µg/mL] | MIC Range [4] [µg/mL] | PAE [2, 17] [h] | PAE [2, 18] [h] | number of strains with lower MICs in the presence of reserpine [5] [strains] | Number of dilutions decrease after incubation with reserpine ([5]; strain 11) [X] | also measured
1 | > 128 | 4 (≈ 5.34 µM) | > 128 | 0.5 (≈ 0.668 µM) | >128.0 | CC[C@H]1OC(=O)[C@H](C)[C@@H](O[C@H]2C[C@@](C)(OC)[C@@H](O)[C@H](C)O2)[C@H](C)[C@@H](O[C@@H]2O[C@H](C)C[C@H](N(C)C)[C@H]2O)[C@](C)(O)C[C@@H](C)CN(C)[C@H](C)[C@@H](O)[C@]1(C)O [Azithromycin, azithromycin] | 1.3 to 3.0 | 0.008 (≈ 0.0107 µM) | 0.06 (≈ 0.0801 µM) | > 64 | > 64 | 0.03 (≈ 0.0401 µM) | > 64 | > 64 | > 64 |  |  |  |  |  |  | MIC90 ([1]; Penicillin I strains): >128.0 µg/mL
2 |  |  |  |  |  | O=C(O)c1cn(C2CC2)c2cc(N3CCNCC3)c(F)cc2c1=O [Ciprofloxacin, ciprofloxacin] |  |  |  |  |  |  |  |  |  | 1 (≈ 3.02 µM) | 0.25 to 8.0 | 3.7 | 0.5 to 1.5 | 23 | 16 | PAE ([2]; 10×MIC, quinolone resistant strain): 6.3 h; Number of dilutions decrease after incubation with reserpine ([5]; strain 1): 2x X; Number of dilutions decrease after incubation with reserpine ([5]; strain 2): 8x X; Number of dilutions decrease after incubation with reserpine ([5]; strain 6): 2X; Number of dilutions decrease after incubation with reserpine ([5]; strain 8): 2X; Number of dilutions decrease after incubation with reserpine ([5]; strain 9): 8X; Number of dilutions decrease after incubation with reserpine ([5]; strain 10): 2X; Number of dilutions decrease after incubation with reserpine ([5]; strain 13): 2X; Number of dilutions decrease after incubation with reserpine ([5]; strain 18): 2X; Number of dilutions decrease after incubation with reserpine ([5]; strain 19): 2X; Number of dilutions decrease after incubation with reserpine ([5]; strain 20): 2X; Number of dilutions decrease after incubation with reserpine ([5]; strain 21): 2X; Number of dilutions decrease after incubation with reserpine ([5]; strain 22): 2X; Number of dilutions decrease after incubation with reserpine ([5]; strain 23): 8X; Number of dilutions decrease after incubation with reserpine ([5]; strain 24): 2x X; Number of dilutions decrease after incubation with reserpine ([5]; strain 28): 8x X
3 | 32 (≈ 42.8 µM) | 2 (≈ 2.67 µM) | > 128 | 0.06 (≈ 0.0802 µM) | >128.0 | CC[C@H]1OC(=O)[C@H](C)[C@@H](O[C@H]2C[C@@](C)(OC)[C@@H](O)[C@H](C)O2)[C@H](C)[C@@H](O[C@@H]2O[C@H](C)C[C@H](N(C)C)[C@H]2O)[C@](C)(OC)C[C@@H](C)C(=O)[C@H](C)[C@@H](O)[C@]1(C)O [Clarithromycin, clarithromycin] | 1.8 to 4.5 | 0.008 (≈ 0.0107 µM) | 0.03 (≈ 0.0401 µM) | > 64 | 32 (≈ 42.8 µM) | 0.008 (≈ 0.0107 µM) | > 64 | > 64 | > 64 |  |  |  |  |  |  | MIC50 [1, 19]: 0.03 µg/mL (≈ 0.0401 µM); MIC50 [1, 20]: 0.03 µg/mL (≈ 0.0401 µM); MIC [3, 21]: 0.03 µg/mL (≈ 0.0401 µM); MIC [3, 22]: 0.016 µg/mL (≈ 0.0214 µM); MIC [3, 23]: 0.03 µg/mL (≈ 0.0401 µM); MIC [3, 24]: 0.03 µg/mL (≈ 0.0401 µM)

Row | Compound | MIC90 [1, 6] [µg/mL] | MIC50 [1, 7] [µg/mL] | MIC90 [1, 8] [µg/mL] | MIC90 [1, 9] [µg/mL] | MIC90 ([1]; Penicillin R strains) [µg/mL] | PAE for non-quinolone compounds ([2]; 10×MIC) [h] | MIC [3, 10] [µg/mL] | MIC [3, 11] [µg/mL] | MIC [3, 12] [µg/mL] | MIC [3, 13] [µg/mL] | MIC [3, 14] [µg/mL] | MIC [3, 15] [µg/mL] | MIC ([3]; strain 10 (I)) [µg/mL] | MIC [3, 16] [µg/mL] | MIC50 [4] [µg/mL] | MIC Range [4] [µg/mL] | PAE [2, 17] [h] | PAE [2, 18] [h] | number of strains with lower MICs in the presence of reserpine [5] [strains] | Number of dilutions decrease after incubation with reserpine ([5]; strain 11) [X] | also measured
4 | C[C@H]1COc2c(N3CCN(C)CC3)c(F)cc3c(=O)c(C(=O)O)cn1c23 [Levofloxacin, levofloxacin] | 2 (≈ 5.53 µM) | 1 (≈ 2.77 µM) | 2 (≈ 5.53 µM) | 2 (≈ 5.53 µM) |  |  | 2 (≈ 5.53 µM) | 1 (≈ 2.77 µM) | 32 (≈ 88.6 µM) | 1 (≈ 2.77 µM) | 2 (≈ 5.53 µM) | 2 (≈ 5.53 µM) | 2 (≈ 5.53 µM) | 2 (≈ 5.53 µM) | 1 (≈ 2.77 µM) | 0.25 to 4.0 | 1.3 | 0.9 to 2.3 | 7 | 4 | MIC50 [1, 19]: 1 µg/mL (≈ 2.77 µM); MIC [1, 19]: 0.5 to 4 µg/mL (≈ 1.38 to 11.1 µM); MIC [1, 7]: 1 to 2 µg/mL (≈ 2.77 to 5.53 µM); MIC50 [1, 20]: 1 µg/mL (≈ 2.77 µM); MIC [1, 20]: 0.125 to 4 µg/mL (≈ 0.346 to 11.1 µM); MIC50 ([1]; Streptococcus pneumoniae, all 207 strains (64 penicillin susceptible, 68 intermediate, 75 resistant)): 1 µg/mL (≈ 2.77 µM); MIC90 ([1]; Streptococcus pneumoniae, all 207 strains (64 penicillin susceptible, 68 intermediate, 75 resistant), read-out: MIC90): 2 µg/mL (≈ 5.53 µM); MIC [3, 21]: 32 µg/mL (≈ 88.6 µM); MIC [3, 22]: 1 µg/mL (≈ 2.77 µM); MIC [3, 23]: 1 µg/mL (≈ 2.77 µM); MIC [3, 24]: 1 µg/mL (≈ 2.77 µM); Number of dilutions decrease after incubation with reserpine ([5]; strain 7): 2X; Number of dilutions decrease after incubation with reserpine ([5]; strain 12): 2X; Number of dilutions decrease after incubation with reserpine ([5]; strain 23): 2X; Number of dilutions decrease after incubation with reserpine ([5]; strain 25): 2x X; Number of dilutions decrease after incubation with reserpine ([5]; strain 26): 2x X; Number of dilutions decrease after incubation with reserpine ([5]; strain 28): 4x X
